The results in this text go back to patent US20230265151A1, “GIP/GLP1 CO-AGONIST COMPOUNDS” (priority 2020, published 2023).

Read-outs that look alike come from different tables or passages of the source. *1 amine or outer side, *2 acyl side, *3 side chain or, on linkers, in order; H or OH if unused. Where a SMILES comes first, the peptide text is derived from it. Side-chain parts run from the residue outwards. [ ]: non-standard residue; d: D form. The star is where a group is joined. Decanoyl(10-(4-HOOC-PhO)) = O=C(O)c1ccc(OCCCCCCCCCC(=O)*)cc1; αMePhe(2-F) = C[C@](N)(Cc1ccccc1F)C(=O)O; γGlu = O=C(O)[C@H](CCC(=O)[*:2])N[*:1]; αMeY = C[C@](N)(Cc1ccc(O)cc1)C(=O)O; αMeL = CC(C)C[C@](C)(N)C(=O)O; Orn = NCCC[C@H](N)C(=O)O; AEEA = NCCOCCOCC(=O)O; Aib = CC(C)(N)C(=O)O

What all share (type): cell-based
In one experiment the target is T1, hGCGR (Homo sapiens, UniProt P47871).
T1 construct: expressed in transfected cells
T1 sequence (P47871 26-477): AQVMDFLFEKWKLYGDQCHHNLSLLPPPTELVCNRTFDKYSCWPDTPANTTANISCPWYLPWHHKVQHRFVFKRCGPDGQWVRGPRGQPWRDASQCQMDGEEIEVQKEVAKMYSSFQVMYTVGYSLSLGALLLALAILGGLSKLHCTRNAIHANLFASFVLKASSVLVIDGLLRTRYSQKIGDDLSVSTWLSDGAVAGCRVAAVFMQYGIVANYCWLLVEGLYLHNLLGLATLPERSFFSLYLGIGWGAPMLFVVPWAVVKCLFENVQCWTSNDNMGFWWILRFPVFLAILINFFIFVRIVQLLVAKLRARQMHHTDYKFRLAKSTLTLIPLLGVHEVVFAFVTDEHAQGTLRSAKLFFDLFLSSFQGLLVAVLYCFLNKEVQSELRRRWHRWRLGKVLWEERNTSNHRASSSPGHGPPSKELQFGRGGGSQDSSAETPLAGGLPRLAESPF
In words: Functional cAMP formation (HTRF) in HEK-293 clonal cells expressing hGCGR, 0.1% bovine casein, without or with 1.0% human serum albumin. Put shortly: (§1)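 Cells were stimulated with peptide for 30 min at 37° C, then lysed in buffer carrying cAMP-d2 and anti-cAMP Eu3+-cryptate for a competitive HTRF read after at least 60 min at room temperature. The 665/620 nm ratio was converted to nM cAMP against a standard curve.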
In general terms: Changes in cAMP serve as a functional read-out for many G protein-coupled receptors.

The next experiment deals with T2, hGIPR (Homo sapiens, UniProt P48546).
T2 construct: expressed in transfected cells
T2 sequence (P48546 22-466): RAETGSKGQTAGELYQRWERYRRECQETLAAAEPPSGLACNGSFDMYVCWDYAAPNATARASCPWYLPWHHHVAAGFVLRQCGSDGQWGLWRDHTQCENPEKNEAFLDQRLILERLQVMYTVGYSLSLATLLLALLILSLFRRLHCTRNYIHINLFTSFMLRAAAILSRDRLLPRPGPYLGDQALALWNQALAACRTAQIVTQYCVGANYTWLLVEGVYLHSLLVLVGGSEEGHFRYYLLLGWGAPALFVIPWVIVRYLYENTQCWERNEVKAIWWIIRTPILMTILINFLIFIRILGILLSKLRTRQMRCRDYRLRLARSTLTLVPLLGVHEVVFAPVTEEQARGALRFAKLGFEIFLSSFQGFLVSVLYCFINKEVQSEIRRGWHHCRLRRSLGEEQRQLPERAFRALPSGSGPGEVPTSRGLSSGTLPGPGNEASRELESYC
Description: Functional cAMP formation (HTRF) in HEK-293 clonal cells expressing hGIPR, 0.1% bovine casein, without or with 1.0% human serum albumin. The gist of the method: as §1

The target in the next experiment is hGLP-1R (Homo sapiens, UniProt P43220). In words: Functional cAMP formation (HTRF) in HEK-293 clonal cells expressing hGLP-1R, 0.1% bovine casein, without or with 1.0% human serum albumin. Particulars: for EC50: cAMP. On the set-up: expressed in transfected cells. Put shortly: as §1
Chain of hGLP-1R (P43220 24-463): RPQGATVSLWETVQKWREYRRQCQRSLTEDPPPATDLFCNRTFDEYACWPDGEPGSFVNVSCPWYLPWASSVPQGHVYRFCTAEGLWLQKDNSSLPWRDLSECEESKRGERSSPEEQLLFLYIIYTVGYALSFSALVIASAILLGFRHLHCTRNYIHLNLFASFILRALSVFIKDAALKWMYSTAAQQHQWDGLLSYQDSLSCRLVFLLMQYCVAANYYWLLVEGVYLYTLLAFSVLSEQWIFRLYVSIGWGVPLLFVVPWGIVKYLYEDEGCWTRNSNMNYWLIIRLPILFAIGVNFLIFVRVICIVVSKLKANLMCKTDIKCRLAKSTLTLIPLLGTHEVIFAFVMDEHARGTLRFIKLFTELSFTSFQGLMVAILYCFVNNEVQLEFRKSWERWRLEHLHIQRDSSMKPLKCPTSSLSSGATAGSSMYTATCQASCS
[1] abbreviates: hGCGR EC50, nM (SEM, n), cAMP, 37° C., 0.1% bovine casein (no human serum albumin), geometric mean.
The mark [2] stands for this setting: hGIPR EC50, nM (SEM, n), cAMP, 37° C., 0.1% bovine casein (no human serum albumin), geometric mean.
[3] abbreviates: HEK293, read-out: hGLP-1R Emax, % ± SEM, cAMP, 37° C., 0.1% bovine casein, percent of maximal response to GLP-1(7-36)NH2, arithmetic mean.
Setting [4] is: hGLP-1R EC50, nM (SEM, n), 37° C., 0.1% bovine casein (no human serum albumin), geometric mean.

Consider `CC[C@H](C)[C@H](NC(=O)[C@H](CC(C)C)NC(=O)[C@](C)(Cc1ccc(O)cc1)NC(=O)[C@@H](CCC(=O)O)NC(=O)[C@@H](NC(=O)[C@](C)(Cc1ccccc1)NC(=O)[C@H](CCC(=O)O)NC(=O)C(C)(C)NC(=O)[C@H](CCC(N)=O)NC(=O)[C@H](C)NC(=O)[C@H](CCCCNC(=O)COCCOCCNC(=O)COCCOCCNC(=O)CC[C@H](NC(=O)CCCCCCCCCCCCC(=O)O)C(=O)O)NC(=O)[C@H](CCCN)NC(=O)[C@H](CC(=O)O)NC(=O)[C@H](CC(C)C)NC(=O)[C@](C)(CC(C)C)NC(=O)[C@@H](NC(=O)[C@H](CO)NC(=O)C1(NC(=O)[C@H](CC(=O)O)NC(=O)[C@H](CO)NC(=O)[C@@H](NC(=O)[C@](C)(Cc2ccccc2F)NC(=O)[C@@H](NC(=O)CNC(=O)[C@H](CCC(=O)O)NC(=O)C(C)(C)NC(=O)[C@@H](N)Cc2ccc(O)cc2)[C@@H](C)O)[C@@H](C)O)CCCC1)[C@@H](C)CC)[C@@H](C)CC)C(=O)N[C@@H](CCC(=O)O)C(=O)NCC(=O)NCC(=O)N[C@@H](CCCCNC(=O)COCCOCCNC(=O)COCCOCCNC(=O)CC[C@H](NC(=O)CCCCCCCCCCCCC(=O)O)C(=O)O)C(=O)N[C@@H](CO)C(=O)N[C@@H](CO)C(=O)NCC(=O)N[C@@H](C)C(=O)N1CCC[C@H]1C(=O)N1CCC[C@H]1C(=O)N1CCC[C@H]1C(=O)N[C@@H](CO)C(N)=O` [Example 94], for which the EC50 at hGCGR (0.1% bovine casein and 1.0% human serum albumin, 37° C., geometric mean, read-out: hGCGR EC50, nM (SEM, n)) is over 9950 nM; on hGCGR (cAMP, incubated at 37° C., 0.1% bovine casein (no human serum albumin), geometric mean, read-out: hGCGR EC50, nM (SEM, n)), over 9950 nM; on hGIPR (cAMP, incubated at 37° C., 0.1% bovine casein (no human serum albumin), geometric mean, read-out: hGIPR EC50, nM (SEM, n)), 0.0132 nM; at hGLP-1R (incubated at 37° C., 0.1% bovine casein (no human serum albumin), geometric mean, read-out: hGLP-1R EC50, nM (SEM, n)), 2.1 nM. In addition, the Emax at hGIPR (HEK293, 0.1% bovine casein and 1.0% human serum albumin, 37° C., percent of maximal response to GIP(1-42)NH2, read-out: hGIPR Emax, % ± SEM) amounted to 97.1%; at hGIPR (HEK293, percent of maximal response to GIP(1-42)NH2, 37° C., 0.1% bovine casein, arithmetic mean, read-out: hGIPR Emax, % ± SEM), 91%; on hGLP-1R (HEK293, 0.1% bovine casein and 1.0% human serum albumin, 37° C., percent of maximal response to GLP-1(7-36)NH2, read-out: hGLP-1R Emax, % ± SEM), 113%; at hGLP-1R (HEK293, percent of maximal response to GLP-1(7-36)NH2, 37° C., 0.1% bovine casein, arithmetic mean, read-out: hGLP-1R Emax, % ± SEM), 97.4%.
On to `CC[C@H](C)[C@H](NC(=O)[C@H](CC(C)C)NC(=O)[C@](C)(Cc1ccc(O)cc1)NC(=O)[C@@H](CCC(=O)O)NC(=O)[C@@H](NC(=O)[C@H](Cc1ccccc1)NC(=O)[C@H](CCCCNC(=O)COCCOCCNC(=O)COCCOCCNC(=O)CC[C@H](NC(=O)CCCCCCCCCOc1ccc(C(=O)O)cc1)C(=O)O)NC(=O)C(C)(C)NC(=O)[C@H](CCC(N)=O)NC(=O)[C@H](C)NC(=O)[C@H](CCCCNC(=O)COCCOCCNC(=O)COCCOCCNC(=O)CC[C@H](NC(=O)CCCCCCCCCOc1ccc(C(=O)O)cc1)C(=O)O)NC(=O)[C@H](CCCN)NC(=O)[C@H](CC(=O)O)NC(=O)[C@H](CC(C)C)NC(=O)[C@](C)(CC(C)C)NC(=O)[C@@H](NC(=O)C(C)(C)NC(=O)[C@@H](NC(=O)[C@H](CC(=O)O)NC(=O)[C@H](CO)NC(=O)[C@@H](NC(=O)[C@](C)(Cc1ccccc1F)NC(=O)[C@@H](NC(=O)CNC(=O)[C@H](CCC(=O)O)NC(=O)C(C)(C)NC(=O)[C@@H](N)Cc1ccc(O)cc1)[C@@H](C)O)[C@@H](C)O)C(C)C)[C@@H](C)CC)[C@@H](C)CC)C(=O)N[C@@H](CCCN)C(=O)NCC(=O)NCC(=O)N1CCC[C@H]1C(=O)N[C@@H](CO)C(=O)N[C@@H](CO)C(=O)NCC(=O)N[C@@H](C)C(=O)N1CCC[C@H]1C(=O)N1CCC[C@H]1C(=O)N1CCC[C@H]1C(=O)N[C@@H](CO)C(N)=O` [Example 410] (H-Y[Aib]EGT[αMePhe(2-F)]TSDV[Aib]I[αMeL]LD[Orn]K([AEEA-AEEA-γGlu-Decanoyl(10-(4-HOOC-PhO))])AQ[Aib]K([AEEA-AEEA-γGlu-Decanoyl(10-(4-HOOC-PhO))])FI[dE][αMeY]LI[Orn]GGPSSGAPPPS-NH2), for which the EC50 at hGCGR (setting [1]) is over 9950 nM; at hGCGR (hGCGR EC50, nM (SEM, n), cAMP, 37° C., 0.1% bovine casein and 1.0% human serum albumin, geometric mean (SEM, n)) it was over 9950 nM; on hGIPR (setting [2]), 0.0118 nM; at hGIPR (hGIPR EC50, nM (SEM, n), cAMP, 37° C., 0.1% bovine casein and 1.0% human serum albumin, geometric mean (SEM, n)), 1.28 nM; at hGLP-1R (setting [4]) it was 0.251 nM; on hGLP-1R (hGLP-1R EC50, nM (SEM, n), 37° C., 0.1% bovine casein and 1.0% human serum albumin, geometric mean (SEM, n)), 11 nM. Further, the Emax turned out to be 86.4% at hGIPR (HEK293, read-out: hGIPR Emax, % ± SEM, cAMP, 37° C., 0.1% bovine casein and 1.0% human serum albumin, percent of maximal response to GIP(1-42)NH2); 93.1% on hGLP-1R (HEK293, read-out: hGLP-1R Emax, % ± SEM, cAMP, 37° C., 0.1% bovine casein and 1.0% human serum albumin, percent of maximal response to GLP-1(7-36)NH2); 94% at hGLP-1R (setting [3]).
Consider `CC[C@H](C)[C@H](NC(=O)[C@H](CCCN)NC(=O)[C@H](CC(=O)O)NC(=O)[C@H](CC(C)C)NC(=O)[C@](C)(CC(C)C)NC(=O)[C@@H](NC(=O)[C@](C)(CO)NC(=O)[C@H](Cc1ccncc1)NC(=O)[C@H](CC(=O)O)NC(=O)[C@H](CO)NC(=O)[C@@H](NC(=O)[C@](C)(Cc1ccccc1F)NC(=O)[C@@H](NC(=O)CNC(=O)[C@H](CCC(=O)O)NC(=O)C(C)(C)NC(=O)[C@@H](N)Cc1ccc(O)cc1)[C@@H](C)O)[C@@H](C)O)[C@@H](C)CC)C(=O)N[C@@H](C)C(=O)N[C@@H](CCC(N)=O)C(=O)NC(C)(C)C(=O)N[C@@H](CCC(=O)O)C(=O)N[C@@H](Cc1ccccc1)C(=O)N[C@H](C(=O)N[C@@H](CCCCNC(=O)COCCOCCNC(=O)COCCOCCNC(=O)CC[C@H](NC(=O)CCCCCCCCCOc1ccc(C(=O)O)cc1)C(=O)O)C(=O)N[C@@](C)(Cc1ccc(O)cc1)C(=O)N[C@@H](CC(C)C)C(=O)N[C@H](C(=O)N[C@@H](CCCCNC(=O)COCCOCCNC(=O)COCCOCCNC(=O)CC[C@H](NC(=O)CCCCCCCCCOc1ccc(C(=O)O)cc1)C(=O)O)C(=O)NCC(=O)NCC(=O)N1CCC[C@H]1C(=O)N[C@@H](CO)C(=O)N[C@@H](CO)C(=O)NCC(=O)N[C@@H](C)C(=O)N1CCC[C@H]1C(=O)N1CCC[C@H]1C(=O)N1CCC[C@H]1C(=O)N[C@@H](CO)C(N)=O)[C@@H](C)CC)[C@@H](C)CC` [Example 306], for which the EC50 at hGCGR (hGCGR EC50, nM (SEM, n), 0.1% bovine casein and 1.0% human serum albumin, 37° C., geometric mean) is over 9950 nM; on hGCGR (setting [1]), over 9950 nM; on hGIPR (hGIPR EC50, nM (SEM, n), 0.1% bovine casein and 1.0% human serum albumin, 37° C., geometric mean) it was 1.12 nM; at hGIPR (setting [2]), 0.0227 nM; at hGLP-1R (setting [4]) it was 0.414 nM. Also, the Emax at hGLP-1R (setting [3]) is 105%.

One may read the EC50 as the concentration giving half of the maximal effect. By Emax is commonly meant the greatest response seen or fitted, relative to the assay's reference.
